Test results as given in patent EP4670722A1, “PROPHYLACTIC OR AMELIORATING AGENT FOR CELL AGING” (Kyowa Pharma Chemical Co., Ltd., priority 2023, dated 2024).

Legend:
IL-1α = IL-1α expression analysis (ELISA) under H2O2; format: cell-based, Human; conditions: HaCaT, 20 µM H2O2, 50 µg/mL to 200 µg/mL, 24 hours; suppression increased as content increased; Fig. 10
Description: Human normal epidermal keratinocytes (HaCaT) were cultured in DMEM containing 10% FBS. The cultured cells were collected by trypsin treatment. The collected cells were seeded in a 48-well plate at a cell density of 6 x 10^4 cells/well and cultured for 24 hours in a 37°C, 5% CO2 incubator. After culturing, the cells were precultured for 2 hours in FBS-free DMEM containing the test sample (2'-FL and sucrose) at 50 µg/mL, 100 µg/mL, or 200 µg/mL, or in FBS-free DMEM not containing the test sample. Thereafter, the medium was replaced with FBS-free DMEM containing the test sample at 50 µg/mL, 100 µg/mL, or 200 µg/mL and 20 µM H2O2, or with FBS-free DMEM not containing the test sample but containing 20 µM H2O2, respectively, and after culturing for an additional 24 hours in a 37°C, 5% CO2 incubator, the culture supernatant was collected. The culture supernatant was centrifuged, and the resulting supernatant was used as a sample. […]
Since most IL-1α is released extracellularly, the IL-1α expression level was evaluated by measuring IL-1α in the supernatant medium by ELISA (AuthentiKine™ IL-1 alpha ELISA Kit, manufactured by Proteintech). […] The relative value of the IL-1α amount when each test sample was added was calculated, with the IL-1α amount in the control set to 1.

[1] = tested on: Human normal dermal fibroblasts (NB1RGB) with a PDL of 30 or less; test: Cell viability (Cell Counting Kit-8) of tunicamycin-treated dermal fibroblasts; format: cell-based; conditions: NB1RGB PDL of 30 or less, tunicamycin 0.3 µg/mL, 50 µg/mL to 200 µg/mL, 24 hours; effect increased as content increased; Fig. 6
Description: Human normal dermal fibroblasts (NB1RGB) with a PDL of 30 or less were cultured using DMEM containing 10% FBS. The cultured cells were collected by trypsin treatment. The collected cells were seeded in a 96-well plate, and when they reached 100% confluence, tunicamycin was added at 0.3 µg/mL, and the cells were cultured for 24 hours. A group was also prepared in which FBS-free DMEM medium containing a test sample (2'-fucosyllactose) at 50 µg/mL, 100 µg/mL, or 200 µg/mL was added simultaneously with tunicamycin, and cultured for 24 hours. After completion of culture, the viability of human normal dermal fibroblasts was evaluated using Cell Counting Kit-8 (manufactured by Dojindo Laboratories). The measurement wavelength (As) was set to 450 nm, and the reference wavelength was set to 620 nm.
Human normal dermal fibroblasts with a PDL of 30 or less were cultured and the absorbance at a measurement wavelength of 450 nm was measured in the same manner as in Example 5-1, except that tunicamycin and the test sample were not added. The obtained absorbance was designated as Ab, and the cell viability represented by the above formula (1) was determined.

laminin = test: Laminin secretion amount (ELISA) of tunicamycin-treated dermal fibroblasts; format: cell-based, Human; conditions: NB1RGB PDL of 30 or less, tunicamycin 0.3 µg/mL, 50 µg/mL to 200 µg/mL, 24 hours; recovery increased as content increased; Fig. 8
Description: Human normal dermal fibroblasts (NB1RGB) with a PDL of 30 or less were cultured using DMEM containing 10% FBS. The cultured cells were collected by trypsin treatment. The collected cells were seeded in a 24-well plate, and when they reached 100% confluence, tunicamycin at 0.3 µg/mL was added, and the culture supernatant was collected after 24 hours. A group was also prepared in which FBS-free DMEM medium containing the test sample (2'-fucosyllactose) at 50 µg/mL, 100 µg/mL, or 200 µg/mL was added simultaneously with tunicamycin, and the culture supernatant was collected after 24 hours. The culture supernatant was centrifuged, and the resulting supernatant was used as a sample. […] This total cell protein concentration was measured by the Bradford assay.
Human normal dermal fibroblasts with a PDL of 30 or less were cultured in the same manner as in Example 7-1, except that tunicamycin and the test sample were not added, and the culture supernatant was collected. […] This total cell protein concentration was measured by the Bradford assay.
An Enzyme-Linked Immunosorbent Assay (ELISA) method was performed using an antibody against laminin to measure the amount of laminin in the samples. […] After stopping the reaction, the absorbance at a measurement wavelength of 450 nm was measured using a microplate reader. […]

C[C@@H]1O[C@@H](O[C@H]2[C@H](O[C@H]3[C@H](O)[C@@H](O)C(O)O[C@@H]3CO)O[C@H](CO)[C@H](O)[C@@H]2O)[C@@H](O)[C@H](O)[C@@H]1O (stereo partly drawn) [2'-FL, 2'-fucosyllactose]
H2O2-induced promotion of IL-1α expression (IL-1α): suppressed the H2O2-induced promotion of IL-1 α expression
endoplasmic reticulum stress (cell viability) [1]: ameliorated endoplasmic reticulum stress
laminin secretion (laminin): restored laminin secretion
